Results taken from the NIST ThermoML archive (doi:10.1016/j.jct.2016.02.013).

Key:
[1] = for surface tension liquid-gas: Pendant drop shape; for electrical conductivity / viscosity / mass density: 101.33 kPa; for surface tension liquid-gas / electrical conductivity / viscosity / mass density: Liquid; for electrical conductivity: Alternating current cell with electrodes; for viscosity: Concentric cylinders viscometry; for mass density: Vibrating tube method
[2] = refractive index (Na D-line) (dimensionless); conditions: 101.33 kPa, Liquid, Standard Abbe refractometry

CCCC[N+](CCCC)(CCCC)CCCC.O=S(=O)([O-])C(F)(F)C(F)(F)C(F)(F)C(F)(F)C(F)(F)C(F)(F)C(F)(F)C(F)(F)F [tetrabutylammonium heptadecafluorooctanesulfonate]
[1]
Conditions | surface tension liquid-gas [mN/m]
298.4 K | 21.98
303.2 K | 21.6
313.3 K | 21.11
323.2 K | 20.65
333.2 K | 20.14
343 K | 19.55

CC[n+]1cccc(C)c1.O=S(=O)([O-])C(F)(F)C(F)(F)C(F)(F)C(F)(F)F [1-ethyl-3-methylpyridinium perfluorobutanesulfonate]
[1]
Conditions | surface tension liquid-gas [mN/m]
298.3 K | 26.35
303.4 K | 26.16
313.4 K | 25.77
323.6 K | 25.39
332.9 K | 25.12
343 K | 24.7

CCCC[N+](CCCC)(CCCC)CCCC.O=S(=O)([O-])C(F)(F)C(F)(F)C(F)(F)C(F)(F)F [tetrabutylammonium perfluorobutanesulfonate]
[1]
Conditions | surface tension liquid-gas [mN/m]
333.1 K | 22.77
338 K | 22.57
343.1 K | 22.36
348.3 K | 22.2
353.4 K | 21.95

CC[n+]1cccc(C)c1.O=C([O-])C(F)(F)C(F)(F)C(F)(F)C(F)(F)F [1-ethyl-3-methylpyridinium perfluoropentanoate]
Conditions | electrical conductivity, [1] [S/m] | mass density, [1] [kg/m3] | refractive index, [2] | surface tension liquid-gas, [1] [mN/m] | viscosity, [1] [mPa·s]
293.15 K | 0.0915 | 1458.7 | 1.42282 | – | 196
298.15 K | 0.12 | 1453.6 | 1.42137 | – | 147.1
298.3 K | – | – | – | 26.83 | –
303.15 K | 0.155 | 1448.6 | 1.4199 | – | 110.8
308.15 K | 0.194 | 1443.6 | 1.41844 | – | 85.39
308.2 K | – | – | – | 26.49 | –
313.15 K | 0.239 | 1438.7 | 1.41697 | – | 67.81
317.9 K | – | – | – | 26.07 | –
318.15 K | 0.289 | 1433.7 | 1.41553 | – | 53.67
323.15 K | 0.355 | 1428.9 | 1.41406 | – | 43.6
328 K | – | – | – | 25.71 | –
328.15 K | – | 1424 | 1.4126 | – | 35.94
333.15 K | – | 1419.2 | 1.41114 | – | 30.35
338 K | – | – | – | 25.31 | –
338.15 K | – | 1414.3 | 1.40955 | – | 25.32
343.15 K | – | 1409.4 | 1.40811 | – | 21.61
347 K | – | – | – | 24.94 | –
348.15 K | – | 1404.5 | 1.40672 | – | 18.61
353.15 K | – | 1399.5 | 1.40531 | – | 16.39

Conditions | Normal melting temperature [°C]
[1], Crystal, DTA | 2
